We go through one molecule from EPA's ToxValDB 9.5 (doi:10.2903/j.efsa.2014.3814).

Series [1] has as its system Rattus norvegicus.
Series [2] deals with Oryctolagus sp. As to conditions: reproduction developmental; body weight.
In series [3] the test system is Colinus virginianus.
Series [4] has as its system Lepomis macrochirus. The note with it: acute; duration: 96 hours; mortality.
Series [5] relates to Folsomia candida. As to conditions: chronic/long-term; duration: 28 days.
Series [6] relates to Apis mellifera. As to conditions: acute, mortality.
For series [7], the system named is Hypoaspis aculeifer. The note with it: chronic/long-term; duration: 14 days.
Series [8] has as its system Ictalurus punctatus. As to conditions: acute; duration: 96 hours; mortality.
In series [9] the test system is Pontoscolex corethrurus.
Series [10] relates to Pimephales promelas. As to conditions: chronic/long-term; duration: 33 days; growth.
The test system of series [11] is Canidae. The note with it: chronic; duration: 1 years; oral; Dog Other; organ weight.
In series [12] the test system is Bibionidae. As to conditions: chronic/long-term; duration: 28 days.
The subject of series [13] is Typhlodromus pyri. Put plainly: LR50; higher = less toxic. As to conditions: not reported; mortality.
The subject of series [14] is Aphidius rhopalosiphi. Kind of series: LR50; higher = less toxic. The note with it: not reported; mortality.

The term NOAEL denotes the highest dose or exposure tested at which no adverse effect was seen.

Values after ≈ are worked out from the molar mass of the structure shown.

For `CNC(=O)c1cc(C#N)cc(C)c1NC(=O)c1cc(Br)nn1-c1ncccc1Cl` [Cyantraniliprole], the LD50 is over 5000 mg/kg in series [1] (acute, oral, mortality); over 2250 mg/kg in series [3] (acute, oral); over 0.0934 µg/piece in series [6] (dermal); over 0.105 µg/piece in [6] (oral, unspecified). The no observed adverse effect level (NOAEL) in [1] (reproduction developmental, organ weight) was found to be 1.2 mg/kg-day; in series [2], 25 mg/kg-day; in series [3] (reproduction developmental), 93.2 mg/kg-day; in series [11], 1 mg/kg-day. In addition, the LC50 in series [3] (acute, oral, diet) was over 1340 mg/kg; in series [4] it was 2.4 µg/mL (≈ 5.07 µM); in [8], over 10 µg/mL; in series [9] (acute, duration: 14 days, mortality) it was over 1000 mg/kg. The NOEC in series [5] was 0.08 mg/kg; in series [7], 1000 mg/kg; in [9] (chronic/long-term, duration: 56 days) it was over 1000 mg/kg; in [10], 2.9 mg/L; in series [12], 0.01 mg/L. The LR50 in series [13] is over 230 g/ha; in series [14] it was 0.102 g/ha.
